From ChEMBL document CHEMBL3885881, “DrugMatrix”

Species on record: Rattus norvegicus
Assay: DrugMatrix - Regimen: Daily Repeat
Format: toxicity, organism-based, Sprague-Dawley
Design: regimen Daily Repeat, gender Male, age 6-8 weeks
Settings: in vivo, sc, route subcutaneous, […]; for ABSOLUTE BASOPHIL / ABSOLUTE EOSINOPHIL / ABSOLUTE LYMPHOCYTE / ABSOLUTE MONOCYTE / ABSOLUTE SEGMENTED NEUTROPHIL / BASOPHIL / EOSINOPHIL / ERYTHROCYTE COUNT / HEMATOCRIT / HEMOGLOBIN / LEUKOCYTE COUNT / LYMPHOCYTE / MEAN CORPUSCULAR HEMOGLOBIN / MEAN CORPUSCULAR HEMOGLOBIN CONCENTRATION / MEAN CORPUSCULAR VOLUME / MONOCYTE / NEUTROPHIL / NUCLEATED RED BLOOD CELLS / PLATELET COUNT: tissue Blood; for ALANINE AMINOTRANSFERASE / ALBUMIN / ALKALINE PHOSPHATASE / ASPARTATE AMINOTRANSFERASE / BLOOD UREA NITROGEN / CARBON DIOXIDE / CHLORIDE / CHOLESTEROL / CREATINE PHOSPHOKINASE / CREATININE / GLUCOSE / LACTATE DEHYDROGENASE / LIPASE / PHOSPHORUS / POTASSIUM / SODIUM / TOTAL BILIRUBIN / TOTAL PROTEIN / URIC ACID: tissue Plasma
[1] = 0 mg/kg, 72 h, dose level Control, time 3 day
[2] = 0 mg/kg, 120 h, dose level Control, time 5 day
[3] = 22 mg/kg, 72 h, dose level Low, time 3 day
[4] = 22 mg/kg, 120 h, dose level Low, time 5 day

SMILES: O=C(O)c1ccccc1O [SALICYLIC ACID]
- ABSOLUTE BASOPHIL [1]: 0 CELLS/uL
- ABSOLUTE EOSINOPHIL [1]: 0 CELLS/uL
- ABSOLUTE LYMPHOCYTE [1]: 10887 CELLS/uL
- ABSOLUTE MONOCYTE [1]: 56 CELLS/uL
- ABSOLUTE SEGMENTED NEUTROPHIL [1]: 1057 CELLS/uL
- BASOPHIL [1]: 0%
- EOSINOPHIL [1]: 0%
- ERYTHROCYTE COUNT [1]: 5.31 x10E6/uL
- HEMATOCRIT [1]: 33.78%
- HEMOGLOBIN [1]: 13.4 G/DL
- LEUKOCYTE COUNT [1]: 12 x10E3/uL
- LYMPHOCYTE [1]: 91.17%
- MEAN CORPUSCULAR HEMOGLOBIN [1]: 25.25 pg
- MEAN CORPUSCULAR HEMOGLOBIN CONCENTRATION [1]: 39.65 G/DL
- MEAN CORPUSCULAR VOLUME [1]: 63.65 fL
- MONOCYTE [1]: 0.5%
- NEUTROPHIL [1]: 8.33%
- NUCLEATED RED BLOOD CELLS [1]: 0 /100WBC
- PLATELET COUNT [1]: 1142 x10E3/uL
- ALANINE AMINOTRANSFERASE [1]: 57.17 u/L
- ALBUMIN [1]: 4.28 G/DL
- ALKALINE PHOSPHATASE [1]: 425.83 u/L
- ASPARTATE AMINOTRANSFERASE [1]: 93.83 u/L
- BLOOD UREA NITROGEN [1]: 14.17 mg/dL
- CARBON DIOXIDE [1]: 33.5 mmol/L
- CHLORIDE [1]: 100 MEQ/L
- CHOLESTEROL [1]: 70.33 mg/dL
- CREATINE PHOSPHOKINASE [1]: 438.67 u/L
- CREATININE [1]: 0.19 mg/dL
- GLUCOSE [1]: 138.5 mg/dL
- LACTATE DEHYDROGENASE [1]: 190.17 u/L
- LIPASE [1]: 9.83 u/L
- PHOSPHORUS [1]: 11.05 mg/dL
- POTASSIUM [1]: 6.59 MEQ/L
- SODIUM [1]: 143.58 MEQ/L
- TOTAL BILIRUBIN [1]: 0.22 mg/dL
- TOTAL PROTEIN [1]: 6.15 G/DL
- URIC ACID [1]: 1.3 mg/dL
- ABSOLUTE BASOPHIL [2]: 0 CELLS/uL
- ABSOLUTE EOSINOPHIL [2]: 91.17 CELLS/uL
- ABSOLUTE LYMPHOCYTE [2]: 11847.67 CELLS/uL
- ABSOLUTE MONOCYTE [2]: 172.83 CELLS/uL
- ABSOLUTE SEGMENTED NEUTROPHIL [2]: 1105 CELLS/uL
- BASOPHIL [2]: 0%
- EOSINOPHIL [2]: 0.67%
- ERYTHROCYTE COUNT [2]: 5.35 x10E6/uL
- HEMATOCRIT [2]: 33.65%
- HEMOGLOBIN [2]: 13.42 G/DL
- LEUKOCYTE COUNT [2]: 13.22 x10E3/uL
- LYMPHOCYTE [2]: 89.83%
- MEAN CORPUSCULAR HEMOGLOBIN [2]: 25.12 pg
- MEAN CORPUSCULAR HEMOGLOBIN CONCENTRATION [2]: 39.9 G/DL
- MEAN CORPUSCULAR VOLUME [2]: 63 fL
- MONOCYTE [2]: 1.33%
- NEUTROPHIL [2]: 8.17%
- NUCLEATED RED BLOOD CELLS [2]: 0 /100WBC
- PLATELET COUNT [2]: 1347.83 x10E3/uL
- ALANINE AMINOTRANSFERASE [2]: 50 u/L
- ALBUMIN [2]: 4.1 G/DL
- ALKALINE PHOSPHATASE [2]: 329.17 u/L
- ASPARTATE AMINOTRANSFERASE [2]: 77.17 u/L
- BLOOD UREA NITROGEN [2]: 16.83 mg/dL
- CARBON DIOXIDE [2]: 34.83 mmol/L
- CHLORIDE [2]: 99.83 MEQ/L
- CHOLESTEROL [2]: 75.67 mg/dL
- CREATINE PHOSPHOKINASE [2]: 295.83 u/L
- CREATININE [2]: 0.18 mg/dL
- GLUCOSE [2]: 156.33 mg/dL
- LACTATE DEHYDROGENASE [2]: 166.83 u/L
- LIPASE [2]: 9.83 u/L
- PHOSPHORUS [2]: 12.18 mg/dL
- POTASSIUM [2]: 6.69 MEQ/L
- SODIUM [2]: 143.97 MEQ/L
- TOTAL BILIRUBIN [2]: 0.22 mg/dL
- TOTAL PROTEIN [2]: 6.05 G/DL
- URIC ACID [2]: 1.6 mg/dL
- ABSOLUTE BASOPHIL [3]: 0 CELLS/uL
- ABSOLUTE EOSINOPHIL [3]: 26.67 CELLS/uL
- ABSOLUTE LYMPHOCYTE [3]: 6989.67 CELLS/uL
- ABSOLUTE MONOCYTE [3]: 0 CELLS/uL
- ABSOLUTE SEGMENTED NEUTROPHIL [3]: 550.33 CELLS/uL
- BASOPHIL [3]: 0%
- EOSINOPHIL [3]: 0.33%
- ERYTHROCYTE COUNT [3]: 5.05 x10E6/uL
- HEMATOCRIT [3]: 33.17%
- HEMOGLOBIN [3]: 13.07 G/DL
- LEUKOCYTE COUNT [3]: 7.57 x10E3/uL
- LYMPHOCYTE [3]: 92.33%
- MEAN CORPUSCULAR HEMOGLOBIN [3]: 25.9 pg
- MEAN CORPUSCULAR HEMOGLOBIN CONCENTRATION [3]: 39.43 G/DL
- MEAN CORPUSCULAR VOLUME [3]: 65.6 fL
- MONOCYTE [3]: 0%
- NEUTROPHIL [3]: 7.33%
- NUCLEATED RED BLOOD CELLS [3]: 0 /100WBC
- PLATELET COUNT [3]: 1158.33 x10E3/uL
- ALANINE AMINOTRANSFERASE [3]: 58.33 u/L
- ALBUMIN [3]: 4.43 G/DL
- ALKALINE PHOSPHATASE [3]: 511.33 u/L
- ASPARTATE AMINOTRANSFERASE [3]: 103 u/L
- BLOOD UREA NITROGEN [3]: 13.33 mg/dL
- CARBON DIOXIDE [3]: 32 mmol/L
- CHLORIDE [3]: 102 MEQ/L
- CHOLESTEROL [3]: 71 mg/dL
- CREATINE PHOSPHOKINASE [3]: 208.67 u/L
- CREATININE [3]: 0.19 mg/dL
- GLUCOSE [3]: 141.33 mg/dL
- LACTATE DEHYDROGENASE [3]: 161.67 u/L
- LIPASE [3]: 10 u/L
- PHOSPHORUS [3]: 12.97 mg/dL
- POTASSIUM [3]: 6.87 MEQ/L
- SODIUM [3]: 150.3 MEQ/L
- TOTAL BILIRUBIN [3]: 0.2 mg/dL
- TOTAL PROTEIN [3]: 6.27 G/DL
- URIC ACID [3]: 0.83 mg/dL
- ABSOLUTE BASOPHIL [4]: 0 CELLS/uL
- ABSOLUTE EOSINOPHIL [4]: 207.33 CELLS/uL
- ABSOLUTE LYMPHOCYTE [4]: 12679.33 CELLS/uL
- ABSOLUTE MONOCYTE [4]: 80 CELLS/uL
- ABSOLUTE SEGMENTED NEUTROPHIL [4]: 1400 CELLS/uL
- BASOPHIL [4]: 0%
- EOSINOPHIL [4]: 1.33%
- ERYTHROCYTE COUNT [4]: 5.41 x10E6/uL
- HEMATOCRIT [4]: 34.5%
- HEMOGLOBIN [4]: 13.87 G/DL
- LEUKOCYTE COUNT [4]: 14.37 x10E3/uL
- LYMPHOCYTE [4]: 88%
- MEAN CORPUSCULAR HEMOGLOBIN [4]: 25.6 pg
- MEAN CORPUSCULAR HEMOGLOBIN CONCENTRATION [4]: 40.23 G/DL
- MEAN CORPUSCULAR VOLUME [4]: 63.73 fL
- MONOCYTE [4]: 0.67%
- NEUTROPHIL [4]: 10%
- NUCLEATED RED BLOOD CELLS [4]: 0 /100WBC
- PLATELET COUNT [4]: 1310 x10E3/uL
- ALANINE AMINOTRANSFERASE [4]: 52.67 u/L
- ALBUMIN [4]: 4.17 G/DL
- ALKALINE PHOSPHATASE [4]: 362.33 u/L
- ASPARTATE AMINOTRANSFERASE [4]: 87.67 u/L
- BLOOD UREA NITROGEN [4]: 16.33 mg/dL
- CARBON DIOXIDE [4]: 30.33 mmol/L
- CHLORIDE [4]: 105.67 MEQ/L
- CHOLESTEROL [4]: 78.33 mg/dL
- CREATINE PHOSPHOKINASE [4]: 263.33 u/L
- CREATININE [4]: 0.18 mg/dL
- GLUCOSE [4]: 153.33 mg/dL
- LACTATE DEHYDROGENASE [4]: 272.67 u/L
- LIPASE [4]: 9 u/L
- PHOSPHORUS [4]: 13.37 mg/dL
- POTASSIUM [4]: 7.11 MEQ/L
- SODIUM [4]: 149.4 MEQ/L
- TOTAL BILIRUBIN [4]: 0.2 mg/dL
- TOTAL PROTEIN [4]: 6.07 G/DL
- URIC ACID [4]: 1.5 mg/dL
